Values quoted from earlier work as cited in patent US20210299070A1, “METHODS OF TREATING CREATINE T[…]” (Jnana Therapeutics, Inc., priority 2018, published 2021).

Experiments:
[1] = patients with CID (creatine transporter deficiency); oral supplements
[2] = patients with GAMT or AGAT deficiency; oral supplements

Structure (SMILES): CN(CC(=O)O)C(=N)N.O [creatine monohydrate]
- response to treatment [1]: did not respond to treatment
- clinical symptoms [2]: clinical symptoms improved
